Eight molecules from PMC13586308, “Cell type–selective targeting by heterobifunctional protein binders via in-cell enrichment” (Nature Communications, 2026) can be followed below.

The target in experiment [1] is T1, BRD4 (Homo sapiens, UniProt O60885).
T1 construct: full-length BRD4 fused to NanoLuc at N terminus; expressed in transfected cells; host or cells: HEK293T
The experiment in a line: NanoBRET BRD4, transient BRD4-NanoLuc in HEK293T cells. The experiment is classed as cell-based. Particulars: intact HEK293 cells. Here is the method:
The NanoBRET assay was performed as described previously[26],[39]. To study BRD4 engagement, we employed two models: cells stably expressing BRD4-NanoLuc and cells with transient BRD4-NanoLuc expression. For stable cell lines, the coding sequence of human BRD4 (Isoform B) was fused in-frame to NanoLuc luciferase under the control of the human ubiquitin C (UbC) promoter, with left and right homology arms targeting the AAVS1 locus in intron 1 of the PPP1R12C gene to facilitate genomic integration. PC3 prostate cancer cells were transfected with this construct and vectors expressing Cas9 and an sgRNA targeting the AAVS1 locus using Lipofectamine 3000 (Invitrogen). Successful integrands were selected with blasticidin. Expression of the fusion protein was confirmed by western blot. For transient experiments, full-length BRD4 fused to NanoLuc at N terminus, was cloned into an expression plasmid and transfected into HEK293T cells using FuGENE HD (Promega, E2312), with protein expression allowed for 20 h. Serially diluted inhibitors and BRD Tracer-02 (Promega, TracerDB ID: T000022) at the Tracer KD concentration (from TracerDB)[40] were dispensed into white 384-well plates (Greiner 781207) using an ECHO 550 acoustic dispenser (Labcyte). The cells were trypsinized, resuspended in Opti-MEM without phenol red (Life Technologies), and seeded at 2 × 10^5 cells/mL. After equilibration for 2 h at 37 °C/5% CO₂ following compound treatment, the NanoBRET® NanoGlo Substrate + Extracellular NanoLuc® Inhibitor (Promega, N2162) was added according to the manufacturer’s protocol, and filtered luminescence was measured on a PHERAstar plate reader (BMG Labtech) using a donor (450 nm BP) and acceptor (610 nm LP) filter pair. Competitive displacement data were analyzed using GraphPad Prism 9 with a normalized 3-parameter curve fit: Y = 100/(1 + 10^(X − log IC₅₀)). For BRET measurements after FKBP12 knockdown in stably expressing BRD4 Nano-Luc reporter cell line, 10 nL/per well of the FKBP12 PROTAC was pipetted to each well using Labcyte to achieve the final concentration of 200 nM and the plated cells were incubated over-night at 37 °C and 5% CO2. BRET measurements were performed as outlined above.
(In general: BRET reads energy transfer from a luciferase to a nearby fluorophore.)

Experiment [2] addresses T2, BRD4^BD2 (Homo sapiens, UniProt O60885).
T2 construct: to the isolated BD1 and BD2 domains of BRD2, BRD3 and BRD4
The experiment in a line: competitive fluorescence polarization assay, BRD4 BD2 -/+ presenter protein. The experiment is classed as binding. Particulars: for α BRD4^BD2 (binding cooperativity factor): ratio of binding in absence or presence of FKBP12.

In experiment [3] the target is T3, BRD4^BD1 (Homo sapiens, UniProt O60885).
T3 construct: to the isolated BD1 and BD2 domains of BRD2, BRD3 and BRD4
The experiment in a line: competitive fluorescence polarization assay, BRD4 BD1 -/+ presenter protein. The experiment is classed as binding. Particulars: for α BRD4^BD1 (binding cooperativity factor): ratio of binding in absence or presence of FKBP12. (In general: In fluorescence polarisation assays a small probe gives low polarisation when free and higher when bound to something large.)

For experiment [4], the target named is T4, FKBP12 (Homo sapiens, UniProt P62942). The experiment in a line: competitive fluorescence polarization assay, binding to FKBP12. The following applies: competitive FP assay.
T4 sequence (P62942 whole entry): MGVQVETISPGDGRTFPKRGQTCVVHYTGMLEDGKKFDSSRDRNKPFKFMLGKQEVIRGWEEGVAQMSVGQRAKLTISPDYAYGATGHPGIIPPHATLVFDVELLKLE
Experiment [5] addresses T4, FKBP12. The experiment in a line: NanoBRET FKBP12 in intact HEK293 cells. The experiment is classed as cell-based.
Where [6] appears, read: absence of FKBP12, 2 nM JQ1-FL tracer, read-out: Binding to BRD4^BD2 - FKBP12 Kd.
[7] abbreviates: presence of 15 µM FKBP12, read-out: Binding to BRD4^BD2 + FKBP12 Kd (converted).
Where [8] appears, read: absence of FKBP12, 2 nM JQ1-FL tracer, read-out: Binding to BRD4^BD1 - FKBP12 Kd.
The mark [9] stands for this setting: presence of 15 µM FKBP12, read-out: Binding to BRD4^BD1 + FKBP12 Kd (converted).

Read-outs that look alike come from different tables or passages of the source. Bounds are passed on as bounds.

For `Cc1sc2c(c1C)C(c1ccc(Cl)cc1)=NC(CC(=O)NCCOCCn1cc(C3CN(Cc4ccccn4)C(=O)C4CCCC3N4S(=O)(=O)c3cc(Cl)cc(Cl)c3)nn1)c1nnc(C)n1-2` (centres unmarked) [a1c], the IC50 in experiment [1] is 0.94 µM; in experiment [5], 0.022 µM. Besides, the Kd in experiment [2] (setting [6]) came to 0.59 ± 0.11 µM; in experiment [4], 0.001 µM. Further, the “α BRD4^BD2 (binding cooperativity factor)” value (shortened to “α BRD4^BD2”) in experiment [2] worked out at 0.4. In addition, the “α BRD4^BD1 (binding cooperativity factor)” value (from here on “α BRD4^BD1”) in experiment [3] is given as 0.3.

Consider `Cc1sc2c(c1C)C(c1ccc(Cl)cc1)=NC(CC(=O)NCCOCCn1cc(COCC3CN(CC(=O)N4CCC(C)CC4)C(=O)C4CCCC3N4S(=O)(=O)c3cc(Cl)cc(Cl)c3)nn1)c1nnc(C)n1-2` (centres unmarked) [a1dk], for which the figures for the IC50 in experiment [1] and in experiment [5] were 1.19 µM and 0.0091 µM, respectively. For the same molecule, the Kd is 0.32 ± 0.06 µM in experiment [2] (setting [6]); 0.8 ± 0.1 µM in experiment [2] (setting [7]); 0.52 ± 0.09 µM in experiment [3] (setting [8]); 0.2 ± 0.04 µM in experiment [3] (setting [9]); 0.00047 µM in experiment [4]. Also, the “α BRD4^BD2” value in experiment [2] is recorded as 0.4. Further, in experiment [3], the “α BRD4^BD1” value turned out to be 2.6.

Regarding `Cc1sc2c(c1C)C(c1ccc(Cl)cc1)=NC(CC(=O)NCCOCCn1cc(COC(C)C3CN(Cc4ccccn4)C(=O)C4CCCC3N4S(=O)(=O)c3cc(Cl)cc(Cl)c3)nn1)c1nnc(C)n1-2` (centres unmarked) [a1e], the results for the 50% inhibitory concentration (IC50) in experiment [1] and in experiment [5] were 0.39 µM and 0.103 µM, respectively. Also, the Kd was 0.033 ± 0.009 µM in experiment [2] (setting [6]); 0.06 ± 0.01 µM in experiment [2] (setting [7]); 0.07 ± 0.01 µM in experiment [3] (setting [8]); 0.048 ± 0.007 µM in experiment [3] (setting [9]); 0.0089 µM in experiment [4]. Moreover, the “α BRD4^BD2” value in experiment [2] is recorded as 0.6. Besides, the “α BRD4^BD1” value in experiment [3] is recorded as 1.5.

For `Cc1sc2c(c1C)C(c1ccc(Cl)cc1)=NC(CC(=O)NCCOCCn1cc(COC(C)C3CN(Cc4ccccn4)C(=O)C4CCCC3N4S(=O)(=O)c3cc(Cl)cc(Cl)c3)nn1)c1nnc(C)n1-2` (centres unmarked) [a1f], the half-maximal inhibitory concentration (IC50) in experiment [1] worked out at 0.56 µM; in experiment [5], 0.024 µM. Also, the Kd in experiment [2] (setting [6]) is 0.05 ± 0.014 µM; in experiment [2] (setting [7]) it was 0.23 ± 0.03 µM; in experiment [3] (setting [8]), 0.18 ± 0.02 µM; in experiment [3] (setting [9]), 0.14 ± 0.014 µM; in experiment [4] it was 0.0016 µM. Further, in experiment [2], the “α BRD4^BD2” value stood at 0.2. In addition, the “α BRD4^BD1” value in experiment [3] worked out at 1.3.

As to `C=CC1CN(Cc2ccccn2)C(=O)C2CCCC1N2S(=O)(=O)c1cc(Cl)cc(-c2cn(CCOCCNC(=O)CC3N=C(c4ccc(Cl)cc4)c4c(sc(C)c4C)-n4c(C)nnc43)nn2)c1` (centres unmarked) [a1g], the IC50 in experiment [1] was determined as 1.5 µM; in experiment [5], 0.23 µM. In addition, in experiment [2], the “α BRD4^BD2” value is on record as 0.2. The values for the Kd in experiment [3] (setting [9]) and in experiment [4] were above 20 µM and 0.046 µM, respectively.

In the case of `C=CC1CN(Cc2ccccn2)C(=O)C2CCCC1N2S(=O)(=O)c1ccc(-c2cn(CCOCCNC(=O)CC3N=C(c4ccc(Cl)cc4)c4c(sc(C)c4C)-n4c(C)nnc43)nn2)c(Cl)c1` (centres unmarked) [a1h], the figures for the IC50 in experiment [1] and in experiment [5] were 0.27 µM and 0.53 µM, respectively. The Kd in experiment [2] (setting [6]) is 0.052 ± 0.013 µM; in experiment [2] (setting [7]), 1.1 ± 0.2 µM; in experiment [3] (setting [8]) it was 0.1 ± 0.018 µM; in experiment [3] (setting [9]) it was 1.7 ± 0.2 µM; in experiment [4] it was 0.05 µM.

On to `C=CC1CN(Cc2cn(CCOCCNC(=O)CC3N=C(c4ccc(Cl)cc4)c4c(sc(C)c4C)-n4c(C)nnc43)nn2)C(=O)C2CCCC1N2S(=O)(=O)c1cc(Cl)cc(Cl)c1` (centres unmarked) [a1i], for which the results for the IC50 in experiment [1] and in experiment [5] were 0.56 µM and 0.2 µM, respectively. Further, the values for the Kd in experiment [2] (setting [6]) and in experiment [4] were 0.91 ± 0.16 µM and 0.01 µM, respectively. Besides, the “α BRD4^BD2” value in experiment [2] came to 0.3. In experiment [3], the “α BRD4^BD1” value came out at 0.5.

With `C=CC1CN(Cc2ccccn2)C(=O)C2CCCC1N2S(=O)(=O)c1cc(Cl)cc(-c2cn(CCOCCOCCNC(=O)CC3N=C(c4ccc(Cl)cc4)c4c(sc(C)c4C)-n4c(C)nnc43)nn2)c1` (centres unmarked) [a2g], the half-inhibitory concentration (IC50) in experiment [1] came to 3.07 µM. The Kd came to 0.58 ± 0.09 µM in experiment [2] (setting [6]) and 0.076 µM in experiment [4]. The “α BRD4^BD2” value in experiment [2] is reported as 0.4. In experiment [3], the “α BRD4^BD1” value is recorded as 0.4.

What is called IC50 is the point on the concentration scale where inhibition reaches its midpoint. What is called Kd is the concentration at which binding is half-saturated.
